Assay results taken from US7081460B2, “Quinazoline and quinazoline-like compounds for the treatment of integrin-mediated disorders” (Ortho-McNeil Pharmaceutical, Inc., priority 2001, dated 2006).

Tests used:
[1] = target: GPIIb/IIIa (Homo sapiens, UniProt P05106+P08514); assay: In vitro solid phase purified glycoprotein IIb/IIIa binding assay (biotinylated fibrinogen); conditions: RGD-affinity purified GPIIb/IIIa, biotinylated fibrinogen; read-out: GPIIb/IIIa Binding IC50
Method: (§1) In vitro Solid Phase Purified αvβ3 Binding Assay The vitronectin/αvβ3 binding assay methods were derived from Mehta et al. (Biochem J. 1998, 330, 861). Human αvβ3 (Chemicon International Inc., Temecula, Calif.), at a concentration of 1 μg/ml dissolved in Tris buffer (20 mM Tris, 1 mM CaCl2, 1 mM MgCl2, 10 μM MnCl2, 150 mM NaCl), was immobilized on Immulon 96 well plates (Dynex Technologies, Chantilly, Va.) overnight at 4° C. Plates were washed and treated with blocking buffer (3% BSA in Tris buffer) for 2 h at 37 C. Plates were then rinsed 2 times in Tris buffer containing 0.3% BSA and 0.2% Tween20 (polyoxyethylenesorbitan monolaurate). Five minutes prior to the addition of 5 nM vitronectin (Sigma, St. Louis, Mo.), compounds of the invention were added to wells in duplicate. Each plate included c-RGDfV as an internal control. Following a 3 hour incubation at 37° C., plates were washed 5 times in assay buffer. An anti-human vitronectin IgG rabbit polyclonal antibody (Calbiochem, San Diego, Calif.) was added (1:2000) and plates were incubated for 1 hour at room temperature. VectaStain ABC peroxidase kit reagents (Vector Laboratories, Burlingame, Calif.) employing a biotin labeled anti-rabbit IgG, were utilized for detection of bound antibody. Plates were read at 490 nm on a Molecular Devices (Sunnyvale, Calif.) microplate reader. […] The plate was covered and incubated overnight at 4° C. The GPIIb/IIIa solution was discarded and 150 μl of 5% BSA was added and incubated at RT for 1–3 h. The plate was washed extensively with modified Tyrodes buffer. Biotinylated fibrinogen (25 μl/well) at 2× final concentration was added to the wells that contain the test compounds (25 μl/well). The plate was covered and incubated at RT for 2–4 h. Twenty minutes prior to incubation completion, one drop of Reagent A (VectaStain ABC Horse Radish Peroxidase kit, Vector Laboratories, Inc.) and one drop Reagent B were added with mixing to 5 mL modified Tyrodes buffer mix and let stand. The ligand solution was discarded and the plate washed (5×200 μl/well) with modified Tyrodes buffer. Vecta Stain HRP-Biotin-Avidin reagent (50 μl/well, as prepared above) was added and incubated at RT for 15 min. The Vecta Stain solution was discarded and the wells washed (5×200 μl/well) with modified Tyrodes buffer. Developing buffer (10 mL of 50 mM citrate/phosphate buffer @ pH 5.3, 6 mg o-phenylenediamine, 6 μl 30% H2O2; 50 μl/well) was added and incubated at rt for 3–5 min, and then 2 N H2SO4 (50 μl/well) was added. The absorbance was read at 490 nm.

[2] = target: T1, Human αvβ3 (Homo sapiens, UniProt P05106+P06756); assay: In vitro solid phase purified αvβ3 binding assay (vitronectin/αvβ3); conditions: isolated human αvβ3, 5 nM vitronectin; read-out: αvβ3 Binding IC50
T1 construct: purchased Chemicon International Inc., Temecula, Calif
Method: as §1

T1 sequence (P06756 31-889 limits assumed): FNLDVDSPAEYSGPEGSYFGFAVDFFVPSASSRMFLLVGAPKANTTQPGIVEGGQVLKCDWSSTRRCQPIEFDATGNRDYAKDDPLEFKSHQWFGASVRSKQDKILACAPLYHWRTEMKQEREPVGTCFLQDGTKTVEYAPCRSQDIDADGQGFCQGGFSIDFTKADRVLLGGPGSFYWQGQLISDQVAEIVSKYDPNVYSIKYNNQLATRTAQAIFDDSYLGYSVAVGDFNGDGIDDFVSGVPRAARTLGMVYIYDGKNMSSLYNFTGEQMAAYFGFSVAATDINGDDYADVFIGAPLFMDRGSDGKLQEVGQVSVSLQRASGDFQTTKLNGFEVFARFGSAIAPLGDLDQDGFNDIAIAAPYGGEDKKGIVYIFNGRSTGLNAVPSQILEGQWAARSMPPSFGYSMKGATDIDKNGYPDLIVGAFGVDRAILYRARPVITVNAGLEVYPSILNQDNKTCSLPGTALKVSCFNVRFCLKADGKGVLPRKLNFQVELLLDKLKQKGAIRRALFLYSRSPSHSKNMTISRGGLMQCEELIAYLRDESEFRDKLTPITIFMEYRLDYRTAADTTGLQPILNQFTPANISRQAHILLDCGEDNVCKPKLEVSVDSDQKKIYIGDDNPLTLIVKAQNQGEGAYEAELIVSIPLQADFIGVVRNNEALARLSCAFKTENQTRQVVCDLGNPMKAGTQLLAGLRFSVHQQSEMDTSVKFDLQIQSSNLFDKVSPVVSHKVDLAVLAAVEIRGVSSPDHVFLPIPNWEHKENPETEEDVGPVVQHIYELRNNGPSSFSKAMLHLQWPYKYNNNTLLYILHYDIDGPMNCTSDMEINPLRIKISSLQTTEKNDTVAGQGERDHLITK
T1 sequence (P06756 891-1048 partner limits assumed): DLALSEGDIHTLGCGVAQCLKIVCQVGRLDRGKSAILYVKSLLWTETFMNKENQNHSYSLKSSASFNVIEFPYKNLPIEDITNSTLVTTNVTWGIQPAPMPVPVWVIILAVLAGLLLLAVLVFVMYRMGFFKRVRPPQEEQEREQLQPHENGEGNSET
T1 sequence (P05106 27-788): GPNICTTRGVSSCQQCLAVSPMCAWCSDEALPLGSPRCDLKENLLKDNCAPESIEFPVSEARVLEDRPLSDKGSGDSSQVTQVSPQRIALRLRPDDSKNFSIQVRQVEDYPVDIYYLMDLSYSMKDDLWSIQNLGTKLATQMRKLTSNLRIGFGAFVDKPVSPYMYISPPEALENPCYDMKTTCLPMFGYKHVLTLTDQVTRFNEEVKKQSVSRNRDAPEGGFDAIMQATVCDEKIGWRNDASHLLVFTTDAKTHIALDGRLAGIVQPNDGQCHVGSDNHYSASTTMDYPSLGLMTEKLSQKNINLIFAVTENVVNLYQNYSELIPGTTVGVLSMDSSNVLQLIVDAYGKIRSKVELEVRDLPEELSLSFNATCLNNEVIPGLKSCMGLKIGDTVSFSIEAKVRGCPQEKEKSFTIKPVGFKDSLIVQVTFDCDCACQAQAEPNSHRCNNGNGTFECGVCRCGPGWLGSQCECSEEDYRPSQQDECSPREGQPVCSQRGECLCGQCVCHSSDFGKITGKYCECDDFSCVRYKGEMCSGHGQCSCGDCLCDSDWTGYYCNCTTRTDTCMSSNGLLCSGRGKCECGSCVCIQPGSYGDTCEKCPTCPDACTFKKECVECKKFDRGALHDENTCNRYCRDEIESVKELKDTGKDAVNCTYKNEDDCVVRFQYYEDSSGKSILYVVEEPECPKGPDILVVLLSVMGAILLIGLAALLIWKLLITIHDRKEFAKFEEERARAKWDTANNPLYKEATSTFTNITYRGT
Chain of GPIIb/IIIa (P08514 32-887 limits assumed): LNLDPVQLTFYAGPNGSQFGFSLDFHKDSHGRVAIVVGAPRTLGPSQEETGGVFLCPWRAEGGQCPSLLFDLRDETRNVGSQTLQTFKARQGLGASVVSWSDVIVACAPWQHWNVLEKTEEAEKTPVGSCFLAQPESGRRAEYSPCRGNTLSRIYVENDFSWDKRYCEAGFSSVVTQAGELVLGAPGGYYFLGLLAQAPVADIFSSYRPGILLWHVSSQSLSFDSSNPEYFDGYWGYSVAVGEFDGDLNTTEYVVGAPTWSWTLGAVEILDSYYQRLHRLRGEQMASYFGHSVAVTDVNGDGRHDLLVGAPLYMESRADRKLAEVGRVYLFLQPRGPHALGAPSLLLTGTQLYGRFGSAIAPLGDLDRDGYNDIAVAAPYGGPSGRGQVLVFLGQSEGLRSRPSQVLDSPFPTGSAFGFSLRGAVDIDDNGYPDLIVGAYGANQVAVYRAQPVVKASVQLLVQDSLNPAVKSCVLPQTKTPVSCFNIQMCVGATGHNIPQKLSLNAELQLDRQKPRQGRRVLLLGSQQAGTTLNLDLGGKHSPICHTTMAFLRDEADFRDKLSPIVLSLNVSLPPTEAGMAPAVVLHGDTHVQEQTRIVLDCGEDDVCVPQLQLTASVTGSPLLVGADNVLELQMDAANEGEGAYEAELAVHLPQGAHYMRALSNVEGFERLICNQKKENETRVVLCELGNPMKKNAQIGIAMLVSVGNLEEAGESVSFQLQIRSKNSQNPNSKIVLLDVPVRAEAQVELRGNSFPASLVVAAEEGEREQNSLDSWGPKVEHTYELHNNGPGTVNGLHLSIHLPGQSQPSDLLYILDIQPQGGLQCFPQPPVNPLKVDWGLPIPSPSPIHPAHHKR
Chain of GPIIb/IIIa (P08514 891-1039 partner limits assumed): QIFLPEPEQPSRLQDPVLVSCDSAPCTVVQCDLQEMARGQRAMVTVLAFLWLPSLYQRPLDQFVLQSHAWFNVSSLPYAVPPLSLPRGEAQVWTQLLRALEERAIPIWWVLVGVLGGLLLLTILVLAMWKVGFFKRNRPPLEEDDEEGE
Chain of GPIIb/IIIa (P05106 27-788): as the sequence (P05106 27-788) above

| SMILES | IC50 [1] [nM] | IC50 [2] [nM] |
| --- | --- | --- |
| O=C(O)[C@H](Cc1nc2ccc(/C=C/CNc3ccccn3)cc2c(=O)[nH]1)NS(=O)(=O)c1ccc2ccccc2c1 [Compound 24, (αS)-3,4-dihydro-α-[(2-naphthalenylsulfonyl)amino]-4-oxo-6-[(1E)-3-(2-pyridinylamino)-1-propenyl]-2-quinazolinepropanoic acid] | 1400 | 23 |
| O=C(O)[C@H](Cc1nc2ccc(/C=C/CNc3ccccn3)cc2c(=O)[nH]1)NS(=O)(=O)c1ccc(OC(F)(F)F)cc1 [Compound 35, (αS)-3,4-dihydro-4-oxo-6-[(1E)-3-(2-pyridinylamino)-1-propenyl]-α-[[[4-(trifluoromethoxy)phenyl]sulfonyl]amino]-2-quinazolinepropanoic acid] | 4800 | 59 |
| Cc1c(C)c(C)c(S(=O)(=O)N[C@@H](Cc2nc3ccc(/C=C/CNc4ccc(Cl)cn4)cc3c(=O)[nH]2)C(=O)O)c(C)c1C [Compound 39, 6-[(1E)-3-[(5-chloro-2-pyridinyl)amino]-1-propenyl]-(αS)-3,4-dihydro-4-oxo-α-[[(2,3,4,5,6-pentamethylphenyl)sulfonyl]amino]-2-quinazolinepropanoic acid] | 1800 | 1800 |
| O=C(O)[C@H](Cc1nc2ccc(/C=C/CNC3=NCCN3)cc2c(=O)[nH]1)NS(=O)(=O)c1ccc(-c2ccccn2)s1 [Compound 6, 6-[(1E)-3-[(4,5-dihydro-1H-imidazol-2-yl)amino]-1-propenyl]-(αS)-3,4-dihydro-4-oxo-α-[[[5-(2-pyridinyl)-2-thienyl]sulfonyl]amino]-2-quinazolinepropanoic Acid] | 41 | 5.3 |
| Cc1cccc(Cl)c1S(=O)(=O)N[C@@H](Cc1nc2ccc(/C=C/CNc3ccccn3)cc2c(=O)[nH]1)C(=O)O [Compound 29, α-[[(2-chloro-6-methylphenyl)sulfonyl]amino]-(αS)-3,4-dihydro-4-oxo-6-[(1E)-3-(2-pyridinylamino)-1-propenyl]-2-quinazolinepropanoic acid] | 240 | 38 |
| Cc1noc(C)c1S(=O)(=O)N[C@@H](Cc1nc2ccc(/C=C/CNc3ccccn3)cc2c(=O)[nH]1)C(=O)O [Compound 37, α-[[(3,5-dimethyl-4-isoxazolyl)sulfonyl]amino]-(αS)-3,4-dihydro-4-oxo-6-[(1E)-3-(2-pyridinylamino)-1-propenyl]-2-quinazolinepropanoic acid] | 700 | 54 |
| NC/C=C/c1ccc2nc(C[C@H](NC(=O)OCc3ccccc3)C(=O)O)[nH]c(=O)c2c1 [Compound 19, 6-[(1E)-3-amino-1-propenyl]-(αS)-3,4-dihydro-4-oxo-α-[[(phenylmethoxy)carbonyl]amino]-2-quinazolinepropanoic acid] | 450 | > 5000 |
| COc1cccc([C@@H](CC(=O)O)c2nc3ccc(/C=C/CNc4ccccn4)cc3c(=O)[nH]2)c1 [Compound 17, (βR)-3,4-dihydro-β-(3-methoxyphenyl)-4-oxo-6-[(1E)-3-(2-pyridinylamino)-1-propenyl]-2-quinazolinepropanoic Acid] | 18000 | > 50000 |
| CC(C)(C)c1ccc(S(=O)(=O)N[C@@H](Cc2nc3ccc(/C=C/CNc4ccccn4)cc3c(=O)[nH]2)C(=O)O)cc1 [Compound 23, α-[[[4-(1,1-dimethylethyl)phenyl]sulfonyl]amino]-(αS)-3,4-dihydro-4-oxo-6-[(1E)-3-(2-pyridinylamino)-1-propenyl]-2-quinazolinepropanoic acid] | 6400 | – |

Further lines, results first:

| IC50 [1] [nM] | IC50 [2] [nM] | SMILES |
| --- | --- | --- |
| 1300 | 5400 | Cc1c(C)c(C)c(S(=O)(=O)N[C@@H](Cc2nc3ccc(/C=C/CNC4=NCCCCC4)cc3c(=O)[nH]2)C(=O)O)c(C)c1C [Compound 74, (αS)-3,4-dihydro-4-oxo-α-[[(2,3,4,5,6-pentamethylphenyl)sulfonyl]amino]-6-[(1E)-3-[(3,4,5,6-tetrahydro-2H-azepin-7-yl)amino]-1-propenyl]-2-quinazolinepropanoic acid] |
| > 50000 | 2000 | CCCCS(=O)(=O)N[C@@H](Cc1nc2ccc(/C=C/CNC(=O)NCc3ccccc3)cc2c(=O)[nH]1)C(=O)O [Compound 73, α-[(butylsulfonyl)amino]-(αS)-3,4-dihydro-4-oxo-6-[(1E)-3-[[[(phenylmethyl)amino]carbonyl]amino]-1-propenyl]-2-quinazolinepropanoic acid] |
| 51 | 6.8 | COc1ccc(S(=O)(=O)N[C@@H](Cc2nc3ccc(/C=C/CNC4=NCCN4)cc3c(=O)[nH]2)C(=O)O)cc1 [Compound 50, 6-[(1E)-3-[(4,5-dihydro-1H-imidazol-2-yl)amino]-1-propenyl]-(αS)-3,4-dihydro-α-[[(4-methoxyphenyl)sulfonyl]amino]-4-oxo-2-quinazolinepropanoic acid] |
| > 50000 | > 5000 | O=C(O)CCc1nc2ccc(/C=C/CNc3ccccn3)cc2c(=O)n1Cc1ccccc1 [Compound 82, 3,4-dihydro-4-oxo-3-(phenylmethyl)-6-[(1E)-3-(2-pyridinylamino)-1-propenyl]-2-quinazolinepropanoic acid] |
| 18000 | 490 | Cc1ccnc(NC/C=C/c2ccc3nc(C[C@H](NC(=O)OCc4ccccc4)C(=O)O)[nH]c(=O)c3c2)c1 [Compound 69, (αS)-3,4-dihydro-6-[(1E)-3-[(4-methyl-2-pyridinyl)amino]-1-propenyl]-4-oxo-α-[[(phenylmethoxy)carbonyl]amino]-2-quinazolinepropanoic acid] |
| 4900 | 620 | Cc1c(C)c(C)c(S(=O)(=O)N[C@@H](Cc2nc3ccc(/C=C/CNC(=O)NC4CCCCC4)cc3c(=O)[nH]2)C(=O)O)c(C)c1C [Compound 75, 6-[(1E)-3-[[(cyclohexylamino)carbonyl]amino]-1-propenyl]-(αS)-3,4-dihydro-4-oxo-α-[[(2,3,4,5,6-pentamethylphenyl)sulfonyl]amino]-2-quinazolinepropanoic acid] |
| 12000 | 960 | CC(C)(C)OC(=O)N[C@@H](Cc1nc2ccc(/C=C/CNC3=NCCCCC3)cc2c(=O)[nH]1)C(=O)O [Compound 71, α-[[(1,1-dimethylethoxy)carbonyl]amino]-(αS)-3,4-dihydro-4-oxo-6-[(1E)-3-[(3,4,5,6-tetrahydro-2H-azepin-7-yl)amino]-1-propenyl]-2-quinazolinepropanoic acid] |
| 7300 | > 500 | C/C(=C\NC(=O)NC1CCCCC1)c1ccc2nc(C[C@H](NS(=O)(=O)c3c(C)c(C)c(C)c(C)c3C)C(=O)O)[nH]c(=O)c2c1 [Compound 79, 6-[(E)-2-[[(cyclohexylamino)carbonyl]amino]-1-methylethenyl]-(αS)-3,4-dihydro-4-oxo-α-[[(2,3,4,5,6-pentamethylphenyl)sulfonyl]amino]-2-quinazolinepropanoic acid] |
| 620 | 58 | COc1ccc(S(=O)(=O)N[C@@H](Cc2nc3ccc(/C=C/CNC4=NCCCC4)cc3c(=O)[nH]2)C(=O)O)cc1OC [Compound 60, α-[[(3,4-dimethoxyphenyl)sulfonyl]amino]-(αS)-3,4-dihydro-4-oxo-6-[(1E)-3-[(3,4,5,6-tetrahydro-2-pyridinyl)amino]-1-propenyl]-2-quinazolinepropanoic acid] |
| 780 | 210 | Cc1c(C)c(C)c(S(=O)(=O)N[C@@H](Cc2nc3ccc(/C=C/CNC(=O)NC4C[C@H]4c4ccccc4)cc3c(=O)[nH]2)C(=O)O)c(C)c1C (stereo partly drawn) [Compound 66, (αS)-3,4-dihydro-4-oxo-α-[[(2,3,4,5,6-pentamethylphenyl)sulfonyl]amino]-6-[(1E)-3-[[[[(2S)-2-phenylcyclopropyl]amino]carbonyl]amino]-1-propenyl]-2-quinazolinepropanoic acid] |
| 2700 | – | Cc1c(C)c(C)c(S(=O)(=O)N[C@@H](Cc2nc3ccc(/C=C/CNC(=O)NCCc4ccccc4)cc3c(=O)[nH]2)C(=O)O)c(C)c1C [Compound 80, (αS)-3,4-dihydro-4-oxo-α-[[(2,3,4,5,6-pentamethylphenyl)sulfonyl]amino]-6-[(1E)-3-[[[(2-phenylethyl)amino]carbonyl]amino]-1-propenyl]-2-quinazolinepropanoic acid] |
